# From ChEMBL document CHEMBL1201861, “Genomics of Drug Sensitity in Cancer screening data, Wellcome Trust Sanger Institute”
# Values joined by “and” are separate entries in the source; they are usually repeats but may differ in a detail not shown here. Equal entries are not always repeated.
# What was measured:
# Assay in all cases: cells
# CP66-MEL = type: functional, cell-based, Homo sapiens;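 further: growth inhibition of CP66-MEL cells determined in a cell viability assay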
# Description: SANGER: Inhibition of human CP66-MEL cell growth in a cell viability assay.
# D-502MG = type: functional, cell-based, Homo sapiens
# Description: SANGER: Inhibition of human D-502MG cell growth in a cell viability assay.
# DB = type: functional, cell-based; details: Homo sapiens
# Description: SANGER: Inhibition of human DB cell growth in a cell viability assay.
# DMS-273 = type: functional, cell-based, Homo sapiens
# Description: SANGER: Inhibition of human DMS-273 cell growth in a cell viability assay.
# ES6 = type: functional, cell-based, Homo sapiens;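 further: growth inhibition of human ES6 cells, read out with a cell viability assay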
# Description: SANGER: Inhibition of human ES6 cell growth in a cell viability assay.
# ESS-1 = type: functional, cell-based, Homo sapiens;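 further: growth inhibition of human ESS-1 cells, read out by a cell viability assay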
# Description: SANGER: Inhibition of human ESS-1 cell growth in a cell viability assay.
# HCC1419 = type: functional, cell-based, Homo sapiens; details: hcc1419;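 further: growth inhibition of human HCC1419 cells, read out as cell viability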
# Description: SANGER: Inhibition of human HCC1419 cell growth in a cell viability assay.
# HOP-92 = type: functional, cell-based, Homo sapiens; details: hop-92;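 further: cell viability readout, with IC50 reflecting inhibition of HOP-92 cell growth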
# Description: SANGER: Inhibition of human HOP-92 cell growth in a cell viability assay.
# HPAF-II = type: functional, cell-based, Homo sapiens; details: hpaf-ii;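 further: growth inhibition of HPAF-II cells, read out with a cell viability assay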
# Description: SANGER: Inhibition of human HPAF-II cell growth in a cell viability assay.
# HT1197 = type: functional, cell-based, Homo sapiens, HT-1197; details: ht-1197
# Description: SANGER: Inhibition of human HT-1197 cell growth in a cell viability assay.
# HT-29 = type: functional, cell-based, Homo sapiens; details: ht-29;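 further: growth inhibition of human HT-29 cells, read out by a cell viability assay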
# Description: SANGER: Inhibition of human HT-29 cell growth in a cell viability assay.
# IST-MES1 = type: functional, cell-based, Homo sapiens;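 further: growth inhibition of IST-MES1 cells, measured with a cell viability assay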
# Description: SANGER: Inhibition of human IST-MES1 cell growth in a cell viability assay.
# KNS-81-FD = type: functional, cell-based, Homo sapiens;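 further: growth inhibition of KNS-81-FD cells, read out with a cell viability assay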
# Description: SANGER: Inhibition of human KNS-81-FD cell growth in a cell viability assay.
# KYSE-70 cell line = type: functional, cell-based, Homo sapiens; details: kyse-70;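 further: cell viability assay read-out, with IC50 expressing suppression of KYSE-70 cell growth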
# Description: SANGER: Inhibition of human KYSE-70 cell growth in a cell viability assay.
# LB1047-RCC = type: functional, cell-based, Homo sapiens;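 further: inhibition of cell growth, determined with a cell viability assay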
# Description: SANGER: Inhibition of human LB1047-RCC cell growth in a cell viability assay.
# LB771-HNC = type: functional, cell-based, Homo sapiens;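 further: growth inhibition of LB771-HNC human cells, read out with a cell viability assay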
# MHH-NB-11 = type: functional, cell-based, Homo sapiens;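 further: growth inhibition of human MHH-NB-11 cells, read out by a cell viability assay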
# Description: SANGER: Inhibition of human MHH-NB-11 cell growth in a cell viability assay.
# MIA PaCa-2 = type: functional, cell-based, Homo sapiens; details: mia paca-2;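 further: growth inhibition of MIA PaCa-2 cells, read out with a cell viability assay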
# Description: SANGER: Inhibition of human MIA-PaCa-2 cell growth in a cell viability assay.
# MN-60 = type: functional, cell-based; details: Homo sapiens;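 further: growth inhibition of the MN-60 cell line, determined with a cell viability assay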
# Description: SANGER: Inhibition of human MN-60 cell growth in a cell viability assay.
# MOLT-16 = type: functional, cell-based; details: Homo sapiens;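 further: growth inhibition of human MOLT-16 cells, read out with a cell viability assay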
# Description: SANGER: Inhibition of human MOLT-16 cell growth in a cell viability assay.
# MPP-89 = type: functional, cell-based, Homo sapiens;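 further: growth inhibition of human MPP-89 cells, read out with a cell viability assay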
# Description: SANGER: Inhibition of human MPP-89 cell growth in a cell viability assay.
# MZ2-MEL = type: functional, cell-based, Homo sapiens;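 further: growth inhibition of MZ2-MEL cells read out with a cell viability assay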
# Description: SANGER: Inhibition of human MZ2-MEL cell growth in a cell viability assay.
# MeWo = type: functional, cell-based, Homo sapiens; details: mewo;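 further: growth inhibition of MeWo cells, determined by a cell viability readout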
# Description: SANGER: Inhibition of human Mewo cell growth in a cell viability assay.
# NB6 = type: functional, cell-based, Homo sapiens;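 further: growth inhibition of NB6 cells, read out by a cell viability assay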
# Description: SANGER: Inhibition of human NB6 cell growth in a cell viability assay.
# NCI-H1581 = type: functional, cell-based, Homo sapiens;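 further: cell growth inhibition read out by a viability assay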
# Description: SANGER: Inhibition of human NCI-H1581 cell growth in a cell viability assay.
# NCI-H1793 = type: functional, cell-based, Homo sapiens; details: nci-h1793;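 further: cell growth inhibition, read out by a cell viability assay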
# Description: SANGER: Inhibition of human NCI-H1793 cell growth in a cell viability assay.
# NCI-H23 = type: functional, cell-based, Homo sapiens;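 further: cell viability assay measuring growth inhibition of NCI-H23 cells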
# NCI-H69 = type: functional, cell-based; details: Homo sapiens;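 further: growth inhibition of the cell line, read out with a cell viability assay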
# Description: SANGER: Inhibition of human NCI-H69 cell growth in a cell viability assay.
# NOMO-1 = type: functional, cell-based; details: Homo sapiens;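 further: growth inhibition of human NOMO-1 cells measured by a cell viability assay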
# OCUB-M = type: functional, cell-based, Homo sapiens;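 further: growth inhibition of the cancer cell line, read out through a cell viability assay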
# Description: SANGER: Inhibition of human OCUB-M cell growth in a cell viability assay.
# OVCAR-4 = type: functional, cell-based, Homo sapiens;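 further: growth inhibition of human OVCAR-4 cells, measured with a cell viability assay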
# Description: SANGER: Inhibition of human OVCAR-4 cell growth in a cell viability assay.
# OVCAR-5 = type: functional, cell-based, Homo sapiens; details: ovcar-5;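 further: growth inhibition of human OVCAR-5 cells, read out with a cell viability assay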
# Description: SANGER: Inhibition of human OVCAR-5 cell growth in a cell viability assay.
# P12-Ichikawa = type: functional, cell-based; details: Homo sapiens
# PA-1 = type: functional, cell-based, Homo sapiens; details: pa-1;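 further: IC50 for suppression of PA-1 cell proliferation, determined with a cell viability read-out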
# Description: SANGER: Inhibition of human PA-1 cell growth in a cell viability assay.
# SF-539 = type: functional, cell-based, Homo sapiens;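 further: Read-out is a cell viability assay, with IC50 reflecting inhibition of cell growth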
# Description: SANGER: Inhibition of human SF539 cell growth in a cell viability assay.
# SK-MEL-2 = type: functional, cell-based, Homo sapiens
# Description: SANGER: Inhibition of human SK-MEL-2 cell growth in a cell viability assay.
# SK-MEL-28 = type: functional, cell-based; details: Homo sapiens;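 further: growth inhibition of human SK-MEL-28 cells, read out with a cell viability assay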
# Description: SANGER: Inhibition of human SK-MEL-28 cell growth in a cell viability assay.
# SK-MES-1 = type: functional, cell-based, Homo sapiens; details: sk-mes-1;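 further: growth inhibition of human SK-MES-1 cells, read out with a cell viability assay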
# Description: SANGER: Inhibition of human SK-MES-1 cell growth in a cell viability assay.
# SW837 = type: functional, cell-based, Homo sapiens; details: sw837;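 further: growth inhibition of SW837 cells, determined with a cell viability assay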
# Description: SANGER: Inhibition of human SW837 cell growth in a cell viability assay.
# SW872 = type: functional, cell-based, Homo sapiens;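 further: growth inhibition of SW872 cells, read out by a viability assay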
# Description: SANGER: Inhibition of human SW872 cell growth in a cell viability assay.
# TE-1 = type: functional, cell-based, Homo sapiens;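 further: growth inhibition of the human TE-1 cell line, read out with a cell viability assay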
# Description: SANGER: Inhibition of human TE-1 cell growth in a cell viability assay.
# 5637 = type: functional, cell-based, Homo sapiens
# Description: SANGER: Inhibition of human 5637 cell growth in a cell viability assay.
# 647-V = type: functional, cell-based, Homo sapiens; details: 647-v;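 further: growth inhibition of 647-V cells, read out with a cell viability assay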
# Description: SANGER: Inhibition of human 647-V cell growth in a cell viability assay.
# A253 cell line = type: functional, cell-based, Homo sapiens;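 further: growth inhibition of A253 cells, read out with a cell viability assay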
# Description: SANGER: Inhibition of human A253 cell growth in a cell viability assay.
# A3-KAW = type: functional, cell-based; details: Homo sapiens;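 further: growth inhibition of human A3-KAW cells, read out with a cell viability assay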
# Description: SANGER: Inhibition of human A3-KAW cell growth in a cell viability assay.
# BT-474 = type: functional, cell-based, Homo sapiens
# Description: SANGER: Inhibition of human BT-474 cell growth in a cell viability assay.
# CAL-54 = type: functional, cell-based, Homo sapiens; details: cal-54;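 further: growth inhibition of CAL-54 cells, read out by a viability measurement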
# Description: SANGER: Inhibition of human CAL-54 cell growth in a cell viability assay.
# TGW = type: functional, cell-based; details: Homo sapiens;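 further: growth inhibition of human TGW cells, read out with a cell viability assay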
# Description: SANGER: Inhibition of human TGW cell growth in a cell viability assay.
# UACC-893 = type: functional, cell-based, Homo sapiens; details: uacc-893
# Description: SANGER: Inhibition of human UACC-893 cell growth in a cell viability assay.
# VM-CUB-1 = type: functional, cell-based; details: Homo sapiens;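 further: cell viability assay measuring growth inhibition of the human VM-CUB-1 cell line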
# Description: SANGER: Inhibition of human VM-CUB-1 cell growth in a cell viability assay.
smiles,measurement,setting,value
Cc1cc([C@@H](C)Nc2ccccc2C(=O)O)c2nc(N3CCOCC3)cc(=O)n2c1 [AZD-6482],IC50,"CP66-MEL; Homo sapiens, CP66-MEL",> 5120 nM
same,IC50,CP66-MEL; cp66-mel,> 5120 nM
same,IC50,D-502MG; d-502mg,> 5120 nM
same,IC50,DB,> 5120 nM
same,IC50,"DMS-273; Homo sapiens, DMS-273",4830 nM
same,IC50,DMS-273; dms-273,2480 nM
same,IC50,"ES6; Homo sapiens, ES6",> 5120 nM
same,IC50,ES6; es6,> 5120 nM
same,IC50,"ESS-1; Homo sapiens, ESS-1",> 5120 nM
same,IC50,ESS-1; ess-1,> 5120 nM
same,IC50,HCC1419,> 5120 nM
same,IC50,HOP-92,> 5120 nM and 4580 nM
same,IC50,HPAF-II,> 5120 nM
same,IC50,HT1197,> 5120 nM
same,IC50,HT-29,> 5120 nM
same,IC50,IST-MES1; ist-mes1,> 5120 nM
same,IC50,KNS-81-FD; kns-81-fd,> 5120 nM
same,IC50,KYSE-70 cell line,> 5120 nM
same,IC50,"LB1047-RCC; Homo sapiens, LB1047-RCC",> 5120 nM
same,IC50,LB1047-RCC; lb1047-rcc,> 5120 nM
same,IC50,"LB771-HNC; Homo sapiens, LB771-HNC",> 5120 nM
same,IC50,LB771-HNC; lb771-hnc,> 5120 nM
same,IC50,MHH-NB-11; mhh-nb-11,> 5120 nM
same,IC50,MIA PaCa-2,> 5120 nM
same,IC50,MN-60,> 5120 nM
same,IC50,MOLT-16,4330 nM
same,IC50,MPP-89; mpp-89,> 5120 nM
same,IC50,MZ2-MEL; mz2-mel,> 5120 nM
same,IC50,MeWo,> 5120 nM and 3170 nM
same,IC50,NB6; nb6,> 5120 nM
same,IC50,NCI-H1581; nci-h1581,> 5120 nM
same,IC50,NCI-H1793,> 5120 nM
same,IC50,NCI-H23; nci-h23,> 5120 nM
same,IC50,NCI-H69,> 5120 nM
same,IC50,NOMO-1,3320 nM
same,IC50,OCUB-M; ocub-m,1580 nM and 728 nM
same,IC50,OVCAR-4; ovcar-4,> 5120 nM
same,IC50,OVCAR-5,> 5120 nM
same,IC50,P12-Ichikawa,> 5120 nM
same,IC50,PA-1,> 5120 nM and 2430 nM
same,IC50,SF-539; sf-539,> 5120 nM
same,IC50,"SK-MEL-2; Homo sapiens, SK-MEL-2",> 5120 nM
same,IC50,SK-MEL-2; sk-mel-2,> 5120 nM
same,IC50,SK-MEL-28,> 5120 nM
same,IC50,SK-MES-1,790 nM and > 5120 nM
same,IC50,SW837,> 5120 nM
same,IC50,SW872; sw872,> 5120 nM and 3090 nM
same,IC50,"TE-1; Homo sapiens, TE-1",> 5120 nM
same,IC50,TE-1; te-1,> 5120 nM
same,IC50,5637,> 5120 nM
same,IC50,5637; Homo sapiens,> 5120 nM
same,IC50,647-V,> 5120 nM
same,IC50,"A253 cell line; Homo sapiens, A253",> 5120 nM
same,IC50,A253 cell line; a253,> 5120 nM
same,IC50,A3-KAW,> 5120 nM
same,IC50,BT-474; bt-474,> 5120 nM
same,IC50,CAL-54,> 5120 nM and 1250 nM
same,IC50,TGW,> 5120 nM
same,IC50,UACC-893,3980 nM and 1510 nM
same,IC50,VM-CUB-1,> 5120 nM
CO[C@H]1C[C@@H]2CC[C@@H](C)[C@@](O)(O2)C(=O)C(=O)N2CCCC[C@H]2C(=O)O[C@H]([C@H](C)C[C@@H]2CC[C@@H](O)[C@H](OC)C2)CC(=O)[C@H](C)/C=C(\C)[C@@H](O)[C@@H](OC)C(=O)[C@H](C)C[C@H](C)/C=C/C=C/C=C/1C [SIROLIMUS],IC50,"CP66-MEL; Homo sapiens, CP66-MEL",> 100 nM
same,IC50,"D-502MG; Homo sapiens, D-502MG",> 100 nM
same,IC50,DB,> 100 nM
same,IC50,"ES6; Homo sapiens, ES6",3.43 nM
same,IC50,"IST-MES1; Homo sapiens, IST-MES1",> 100 nM
same,IC50,"KNS-81-FD; Homo sapiens, KNS-81-FD",> 100 nM
same,IC50,"LB1047-RCC; Homo sapiens, LB1047-RCC",34.7 nM
same,IC50,"LB771-HNC; Homo sapiens, LB771-HNC",> 100 nM
same,IC50,"MHH-NB-11; Homo sapiens, MHH-NB-11",> 100 nM
same,IC50,MN-60,> 100 nM
same,IC50,MOLT-16,> 100 nM
same,IC50,"MPP-89; Homo sapiens, MPP-89",> 100 nM
same,IC50,"MZ2-MEL; Homo sapiens, MZ2-MEL",> 100 nM
same,IC50,"NB6; Homo sapiens, NB6",> 100 nM
same,IC50,"NCI-H1581; Homo sapiens, NCI-H1581",> 100 nM
same,IC50,"NCI-H23; Homo sapiens, NCI-H23",> 100 nM
same,IC50,NCI-H69,> 100 nM
same,IC50,NOMO-1,> 100 nM
same,IC50,"OCUB-M; Homo sapiens, OCUB-M",< 0.391 nM
same,IC50,"OVCAR-4; Homo sapiens, OVCAR-4",> 100 nM
same,IC50,"SF-539; Homo sapiens, SF-539",< 0.391 nM
same,IC50,"SK-MEL-2; Homo sapiens, SK-MEL-2",> 100 nM
same,IC50,"SW872; Homo sapiens, SW872",0.846 nM
same,IC50,"TE-1; Homo sapiens, TE-1",> 100 nM
same,IC50,"A253 cell line; Homo sapiens, A253",> 100 nM
same,IC50,A3-KAW,2.99 nM
same,IC50,"BT-474; Homo sapiens, BT-474",> 100 nM
same,IC50,TGW,> 100 nM
CCC(=O)N1CCN(c2ccc(-n3c(=O)ccc4cnc5ccc(-c6cnc7ccccc7c6)cc5c43)cc2C(F)(F)F)CC1 [TORIN1],IC50,"CP66-MEL; Homo sapiens, CP66-MEL",314 nM
same,IC50,"D-502MG; Homo sapiens, D-502MG",> 1200 nM
same,IC50,DB,501 nM
same,IC50,"ES6; Homo sapiens, ES6",10.8 nM
same,IC50,"IST-MES1; Homo sapiens, IST-MES1",235 nM
same,IC50,"KNS-81-FD; Homo sapiens, KNS-81-FD",113 nM
same,IC50,"LB1047-RCC; Homo sapiens, LB1047-RCC",24.9 nM
same,IC50,"LB771-HNC; Homo sapiens, LB771-HNC",75.5 nM
same,IC50,"MHH-NB-11; Homo sapiens, MHH-NB-11",> 1200 nM
same,IC50,MN-60,299 nM
same,IC50,MOLT-16,16.2 nM
same,IC50,"MPP-89; Homo sapiens, MPP-89",181 nM
same,IC50,"MZ2-MEL; Homo sapiens, MZ2-MEL",23.4 nM
same,IC50,"NB6; Homo sapiens, NB6",52.7 nM
same,IC50,"NCI-H1581; Homo sapiens, NCI-H1581",297 nM
same,IC50,"NCI-H23; Homo sapiens, NCI-H23",84.4 nM
same,IC50,NCI-H69,502 nM
same,IC50,NOMO-1,400 nM
same,IC50,"OCUB-M; Homo sapiens, OCUB-M",1.94 nM
same,IC50,"OVCAR-4; Homo sapiens, OVCAR-4",30.9 nM
same,IC50,"SF-539; Homo sapiens, SF-539",984 nM
same,IC50,"SK-MEL-2; Homo sapiens, SK-MEL-2",464 nM
same,IC50,"SW872; Homo sapiens, SW872",22.5 nM
same,IC50,"TE-1; Homo sapiens, TE-1",285 nM
same,IC50,"A253 cell line; Homo sapiens, A253",989 nM
same,IC50,A3-KAW,62.2 nM
same,IC50,"BT-474; Homo sapiens, BT-474",293 nM
same,IC50,TGW,375 nM
Cc1cc(Nc2cc(N3CCN(C)CC3)nc(Sc3ccc(NC(=O)C4CC4)cc3)n2)n[nH]1 [TOZASERTIB],IC50,"CP66-MEL; Homo sapiens, CP66-MEL",> 2000 nM
same,IC50,"D-502MG; Homo sapiens, D-502MG",> 2000 nM
same,IC50,DB,> 2000 nM
same,IC50,"ES6; Homo sapiens, ES6",> 2000 nM
same,IC50,"IST-MES1; Homo sapiens, IST-MES1",> 2000 nM
same,IC50,"KNS-81-FD; Homo sapiens, KNS-81-FD",> 2000 nM
same,IC50,"LB1047-RCC; Homo sapiens, LB1047-RCC",> 2000 nM
same,IC50,"LB771-HNC; Homo sapiens, LB771-HNC",> 2000 nM
same,IC50,"MHH-NB-11; Homo sapiens, MHH-NB-11",> 2000 nM
same,IC50,MN-60,> 2000 nM
same,IC50,MOLT-16,1350 nM
same,IC50,"MPP-89; Homo sapiens, MPP-89",> 2000 nM
same,IC50,"MZ2-MEL; Homo sapiens, MZ2-MEL",> 2000 nM
same,IC50,"NB6; Homo sapiens, NB6",773 nM
same,IC50,"NCI-H1581; Homo sapiens, NCI-H1581",> 2000 nM
same,IC50,"NCI-H23; Homo sapiens, NCI-H23",> 2000 nM
same,IC50,NCI-H69,> 2000 nM
same,IC50,NOMO-1,> 2000 nM
same,IC50,"OCUB-M; Homo sapiens, OCUB-M",170 nM
same,IC50,"OVCAR-4; Homo sapiens, OVCAR-4",> 2000 nM
same,IC50,"SF-539; Homo sapiens, SF-539",> 2000 nM
same,IC50,"SK-MEL-2; Homo sapiens, SK-MEL-2",> 2000 nM
same,IC50,"SW872; Homo sapiens, SW872",> 2000 nM
same,IC50,"TE-1; Homo sapiens, TE-1",> 2000 nM
same,IC50,"A253 cell line; Homo sapiens, A253",> 2000 nM
same,IC50,A3-KAW,> 2000 nM
same,IC50,"BT-474; Homo sapiens, BT-474",> 2000 nM
same,IC50,TGW,> 2000 nM
